According to patent US8450308B2 (Vitae Pharmaceuticals, Inc., priority 2008, dated 2013):
Like-named read-outs stand apart in the source and are kept apart here.

Target: T1, truncated human beta-secretase (residues 1-458, His6-tagged at the C-terminus) (Homo sapiens, UniProt P56817)
T1 construct: truncated human beta-secretase (residues 1-458, His6-tagged at the C-terminus); His6 (C); made in house; host or cells: insect cells D. melanogaster S2 (baculovirus expression system (so in the source))
T1 sequence (P56817 22-458): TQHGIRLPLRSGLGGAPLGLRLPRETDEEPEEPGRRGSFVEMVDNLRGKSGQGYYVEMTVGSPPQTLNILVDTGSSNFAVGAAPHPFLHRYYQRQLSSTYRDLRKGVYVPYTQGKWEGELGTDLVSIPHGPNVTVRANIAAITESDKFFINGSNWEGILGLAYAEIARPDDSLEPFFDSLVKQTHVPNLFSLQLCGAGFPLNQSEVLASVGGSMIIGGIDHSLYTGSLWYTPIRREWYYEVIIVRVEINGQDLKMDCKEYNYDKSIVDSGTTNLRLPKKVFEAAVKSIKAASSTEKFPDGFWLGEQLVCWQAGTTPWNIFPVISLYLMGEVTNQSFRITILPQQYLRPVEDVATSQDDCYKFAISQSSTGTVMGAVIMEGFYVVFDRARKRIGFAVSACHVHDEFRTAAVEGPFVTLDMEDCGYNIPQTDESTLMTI
Assay: BACE fluorescence quench assay
Assay type: biochemical
Method: The assay was performed at room temperature in 96-well white opaque Optiplates aque Optiplates (PerkinElmer, Waltham, Mass.) in a total volume of 200 μl of the incubation mixture containing 50 mM sodium acetate buffer, pH 4.5, 0.4 μM FRET substrate, 2.4 nM enzyme, 5% DMSO, and 0.05% Brij-35. The tested compounds were serially diluted in DMSO and pre-incubated with the substrate. The reaction was started by addition of enzyme, and the progress of the reaction was followed by measuring fluorescence with an excitation wavelength of 480 nm and an emission wavelength of 520 nm. Ten measurements were taken every 5-10 min, and the intensity of fluorescence was regressed against time in order to derive velocities of reaction in all 96 wells. […] IC50 values were calculated by fitting percent inhibition vs. inhibitor concentration into a four-parametric logistic model using XLFit software (IDBS, Guildford, UK).

[1] = in vitro enzyme activity, BACE fluorescence assay, pH 4.5, read-out: IC50

## COc1cccc(C2CC3(N=C(N)N(C)C3=O)c3cc(Br)ccc3O2)c1 (stereo not drawn) [Compound 46, 2′-amino-6-bromo-2-(3-methoxyphenyl)-1′-methylspiro[chroman-4,4′-imidazol]-5′(1′H)-one]
[1]
  IC50: 5 to 10 µM

## CN1C(=O)C2(CC(c3ccccc3)Oc3ccc(-c4cccc(C(=O)NCCC#N)c4)cc32)N=C1N (stereo not drawn) [Compound 47, 3-(2′-amino-1′-methyl-5′-oxo-2-phenyl-1′,5′-dihydrospiro[chroman-4,4′-imidazole]-6-yl)-N-(2-cyanoethyl)benzamide]
  IC50: 5 to 10 µM

## CNS(=O)(=O)c1cccc(-c2ccc3c(c2)C2(CC(c4ccccc4)O3)N=C(N)N(C)C2=O)c1 (stereo not drawn) [Compound 48, 3-(2′-amino-1′-methyl-5′-oxo-2-phenyl-1′,5′-dihydrospiro[chroman-4,4′-imidazole]-6-yl)-N-methylbenzenesulfonamide]
  IC50: 5 to 10 µM

## CN1C(=O)C2(CC(c3ccccc3)Oc3ccc(-c4ccc(S(C)(=O)=O)cc4)cc32)N=C1N (stereo not drawn) [Compound 49, 2′-amino-1′-methyl-6-(4-(methylsulfonyl)phenyl)-2-phenylspir-o[chroman-4,4′-imidazol]-5′(1′H)-one]
  IC50: 5 to 10 µM

## CNC(=O)c1cccc(-c2ccc3c(c2)C2(CC(c4ccccc4)O3)N=C(N)N(C)C2=O)c1 (stereo not drawn) [Compound 50, 3-(2′-amino-1′-methyl-5′-oxo-2-phenyl-1′,5′-dihydrospiro[chroman-4,4′-imidazole]-6-yl)-N-methylbenzamide]
  IC50: 5 to 10 µM

## CN1C(=O)C2(CC(c3ccccc3)Oc3ccc(-c4cccc(NS(C)(=O)=O)c4)cc32)N=C1N (stereo not drawn) [Compound 52, N-(3-(2′-amino-1′-methyl-5′-oxo-2-phenyl-1′,5′-dihydrospiro[chroman-4,4′-imidazole]-6-yl)phenyl)methanesulfonamide]
  IC50: 5 to 10 µM

## CN1C(=O)C2(CC(c3ccc(Cl)cc3)Oc3ccc(Br)cc32)N=C1N (stereo not drawn) [Compound 53, 2′-amino-6-bromo-2-(4-chlorophenyl)-1′-methylspiro[chroman-4,4′-imidazol]-5′(1′H)-one]
[1]
  IC50: 10 to 50 µM

## COCc1ccc(-c2ccc3c(c2)C2(CC(c4ccccc4)O3)N=C(N)N(C)C2=O)cc1 (stereo not drawn) [Compound 54, 2′-amino-6-(4-(methoxymethyl)phenyl)-1′-methyl-2-phenylspiro[chroman-4,4′-imidazol]-5′(1′H)-one]
  IC50: 10 to 50 µM

## CCCCNC(=O)c1cccc(-c2ccc3c(c2)[C@]2(C[C@H](c4ccccc4)O3)N=C(N)N(C)C2=O)c1 [Compound 55a, 3-((2R,4S)-2′-amino-1′-methyl-5′-oxo-2-phenyl-1′,5′-dihydrospiro[chroman-4,4′-imidazole]-6-yl)-N-butylbenzamide]
[1]
  IC50: 10 to 50 µM

## CCCCNC(=O)c1cccc(-c2ccc3c(c2)[C@]2(C[C@@H](c4ccccc4)O3)N=C(N)N(C)C2=O)c1 [Compound 55b, 3-((2S,4S)-2′-amino-1′-methyl-5′-oxo-2-phenyl-1′,5′-dihydrospiro[chroman-4,4′-imidazole]-6-yl)-N-butylbenzamide]
[1]
  IC50: 10 to 50 µM

## CN1C(=O)C2(CC(c3ccccc3)Oc3ccc(-c4ccc(C(F)(F)F)cc4)cc32)N=C1N (stereo not drawn) [Compound 56, 2′-amino-1′-methyl-2-phenyl-6-(4-(trifluoromethyl)phenyl)spiro[chroman-4,4′-imidazol]-5′(1′H)-one]
  IC50: 10 to 50 µM

## CCCN1C(=O)C2(CC(c3ccccc3)Oc3ccc(Br)cc32)N=C1N (stereo not drawn) [Compound 57, 2′-amino-6-bromo-2-phenyl-1′-propylspiro[chroman-4,4′-imidazol]-5′(1′H)-one]
[1]
  IC50: 10 to 50 µM

## CCCN1C(=O)[C@@]2(C[C@H](c3ccccc3)Oc3ccc(Br)cc32)N=C1N [Compound 57a, (2R,4S)-2′-amino-6-bromo-2-phenyl-1′-propylspiro[chroman-4,4′-imidazol]-5′(1′H)-one]
[1]
  IC50: 10 to 50 µM

## CN1C(=O)C2(CC(c3ccccc3)Oc3ccc(-c4ccncc4)cc32)N=C1N (stereo not drawn) [Compound 58, 2′-amino-1′-methyl-2-phenyl-6-(pyridin-4-yl)spiro[chroman-4,4′-imidazol]-5′(1′H)-one]
  IC50: 10 to 50 µM

## NC1=NC2(CC(c3ccccc3)Oc3ccc(Br)cc32)C(=O)N1CCC1CC1 (stereo not drawn) [Compound 59, 2′-amino-6-bromo-1′-(2-cyclopropylethyl)-2-phenylspiro[chroman-4,4′-imidazol]-5′(1′H)-one]
[1]
  IC50: 10 to 50 µM

## CN1C(=O)C2(CC(c3ccccc3)Oc3ccc(-c4cccc(C(=O)N5CCCC5)c4)cc32)N=C1N (stereo not drawn) [Compound 61, 2′-amino-1′-methyl-2-phenyl-6-(3-(pyrrolidine-1-carbonyl)phenyl)spiro[chroman-4,4′-imidazol]-5′(1′H)-one]
  IC50: 10 to 50 µM

## CN1C(=O)C2(CC(c3ccccc3)Oc3ccc(-c4ccc(CNS(C)(=O)=O)cc4)cc32)N=C1N (stereo not drawn) [Compound 62, N-(4-(2′-amino-1′-methyl-5′-oxo-2-phenyl-1′,5′-dihydrospiro[chroman-4,4′-imidazole]-6-yl)benzyl)methanesulfonamide]
  IC50: 10 to 50 µM

## CN1C(=O)C2(CC(c3ccccc3F)Oc3ccc(Br)cc32)N=C1N (stereo not drawn) [Compound 63, 2′-amino-6-bromo-2-(2-fluorophenyl)-1′-methylspiro-[chroman-4,4′-imidazol]-5′(1′H)-one]
[1]
  IC50: 10 to 50 µM

## Cc1ccc2c(c1)C1(CC(c3ccccc3)O2)N=C(N)N(C)C1=O (stereo not drawn) [Compound 64, 2′-amino-1′,6-dimethyl-2-phenylspiro[chroman-4,4′-imidizol]-5′(1′H)-one]
[1]
  IC50: 10 to 50 µM

## CN1C(=O)C2(CC(c3ccccc3)Oc3ccc(-c4ccc(S(=O)(=O)N(C)C)cc4)cc32)N=C1N (stereo not drawn) [Compound 65, 4-(2′-amino-1′-methyl-5′-oxo-2-phenyl-1′,5′-dihydrospiro[chroman-4,4′-imidazole]-6-yl)-N,N-dimethylbenzenesulfonamide]
  IC50: 10 to 50 µM

## CN(C)C(=O)c1ccccc1-c1ccc2c(c1)C1(CC(c3ccccc3)O2)N=C(N)N(C)C1=O (stereo not drawn) [Compound 66, 2-(2′-amino-1′-methyl-5′-oxo-2-phenyl-1′,5′-dihydrospiro[chroman-4,4′-imidazole]-6-yl)-N,N-dimethylbenzamide]
  IC50: 10 to 50 µM

## CN(C)C(=O)c1ccc(-c2ccc3c(c2)C2(CC(c4ccccc4)O3)N=C(N)N(C)C2=O)cc1 (stereo not drawn) [Compound 68, 4-(2′-amino-1′-methyl-5′-oxo-2-phenyl-1′,5′-dihydrospiro[chroman-4,4′-imidazole]-6-yl)-N,N-dimethylbenzamide]
  IC50: 10 to 50 µM

## CCN1C(=O)C2(CC(c3ccccc3)Oc3ccc(Br)cc32)N=C1N (stereo not drawn) [Compound 69, 2′-amino-6-bromo-1′-ethyl-2-phenylspiro[chroman-4,4′-imidazol]-5′(1′H)-one]
[1]
  IC50: 10 to 50 µM

## CN1C(=O)C2(CC(c3ccccc3)Oc3ccc(-c4cccn4C(=O)OC(C)(C)C)cc32)N=C1N (stereo not drawn) [Compound 70, tert-butyl 2-(2′-amino-1′-methyl-5′-oxo-2-phenyl-1′,5′-dihydrospiro[chroman-4,4′-imidazole]-6-yl)-1H-pyrrole-1-carboxylate]
  IC50: 10 to 50 µM

## CCN(CC)C(=O)c1ccc(-c2ccc3c(c2)C2(CC(c4ccccc4)O3)N=C(N)N(C)C2=O)cc1 (stereo not drawn) [Compound 71, 4-(2′-amino-1′-methyl-5′-oxo-2-phenyl-1′,5′-dihydro-spiro[chroman-4,4′-imidazole]-6-yl)-N,N-diethylbenzamide]
  IC50: 10 to 50 µM

## CN1C(=O)C2(CC3(CCCOC3)Oc3ccc(-c4cccc(C#N)c4)cc32)N=C1N (stereo not drawn) [Compound 72]
[1]
  IC50: 0.001 to 0.1 µM

## CN1C(=O)[C@@]2(C[C@]3(CCCOC3)Oc3ccc(-c4cccc(C#N)c4)cc32)N=C1N [Compound 72a]
[1]
  IC50: 0.001 to 0.1 µM

## CN1C(=O)[C@@]2(C[C@@]3(CCCOC3)Oc3ccc(-c4cccc(C#N)c4)cc32)N=C1N [Compound 72b]
[1]
  IC50: 0.1 to 0.5 µM

## CCC1CCC2(C1)CC1(N=C(N)N(C)C1=O)c1cc(-c3cccc(C#N)c3)ccc1O2 (stereo not drawn) [Compound 73]
[1]
  IC50: 0.1 to 0.5 µM

## CC1CCC2(C1)CC1(N=C(N)N(C)C1=O)c1cc(-c3cccc(C#N)c3)ccc1O2 (stereo not drawn) [Compound 74]
[1]
  IC50: 0.1 to 0.5 µM

## CC1CCC2(CC1)CC1(N=C(N)N(C)C1=O)c1cc(-c3cccc(C#N)c3)ccc1O2 (stereo not drawn) [Compound 75]
[1]
  IC50: 0.1 to 0.5 µM

## CN1C(=O)C2(CC3(CCCCC3)Oc3ccc(-c4cccc(C#N)c4)cc32)N=C1N (stereo not drawn) [Compound 76]
[1]
  IC50: 0.1 to 0.5 µM

## CN1C(=O)C2(CC3(CCOCC3)Oc3ccc(-c4cccc(C#N)c4)cc32)N=C1N (stereo not drawn) [Compound 77]
[1]
  IC50: 0.1 to 0.5 µM

## CN1C(=O)C2(CC3(CCCCCC3)Oc3ccc(-c4cccc(C#N)c4)cc32)N=C1N (stereo not drawn) [Compound 78]
[1]
  IC50: 0.5 to 1 µM

## CN1C(=O)C2(CC3(CCCC3)Oc3ccc(-c4cccc(C#N)c4)cc32)N=C1N (stereo not drawn) [Compound 79]
[1]
  IC50: 0.5 to 1 µM

## CN1C(=O)C2(CC3(CCCCC3)Oc3ccc(-c4cccnc4)cc32)N=C1N (stereo not drawn) [Compound 80]
[1]
  IC50: 1 to 5 µM

## CN1C(=O)C2(CC3(CCCC(C(F)(F)F)C3)Oc3ccc(-c4cccc(C#N)c4)cc32)N=C1N (stereo not drawn) [Compound 81]
[1]
  IC50: 1 to 5 µM

## CC1CCCC2(C1)CC1(N=C(N)N(C)C1=O)c1cc(-c3cccc(C#N)c3)ccc1O2 (stereo not drawn) [Compound 82]
[1]
  IC50: 1 to 5 µM

## CC1CC(C)CC2(C1)CC1(N=C(N)N(C)C1=O)c1cc(-c3cccc(C#N)c3)ccc1O2 (stereo not drawn) [Compound 83]
[1]
  IC50: 1 to 5 µM

## CN1C(=O)C2(CC3(CCCCC3)Oc3ccc(-c4ccncc4)cc32)N=C1N (stereo not drawn) [Compound 84]
[1]
  IC50: 10 to 50 µM

## CN1OC2(CC(C3CCCOC3)Oc3ccc(-c4cccc(C#N)c4)cc32)N=C1N (stereo not drawn) [Compound 85, 3-(3′-amino-2′-methyl-2-(tetrahydro-2H-pyran-3-yl)-2′H-spiro[chroman-4,5′-[1,2,4]oxadiazole]-6-yl)benzonitrile]
[1]
  IC50: 0.001 to 0.1 µM

## CN1OC2(CC(C3CCCOC3)Oc3ccc(-c4cc(F)cc(C#N)c4)cc32)N=C1N (stereo not drawn) [Compound 86]
[1]
  IC50: 0.001 to 0.1 µM
